# Source: patent US12286435B2, “Compound having benzo seven-membered ring structure, preparation method therefor, and use thereof” (BIONNA (BEIJING) MEDICAL TECHNOLOGY CO., LTD., priority 2019, dated 2025)
# Where “and” joins values, the source holds several entries; their conditions need not be identical. Equal entries are not always repeated.
# What was measured:
# [1] = system: multiple myeloma MM.1S cell line; assay: Cell viability (CCK-8), multiple myeloma MM.1S; assay type: cell-based; details: MM.1S cells, 4 days, CCK-8, 50% inhibition of cell growth
# Method: 3. Determination of cell viability of the compound
# The sample to be tested was dissolved with 100% dimethyl sulfoxide to prepare a 20 mM stock solution of the compound, which was diluted with 100% dimethyl sulfoxide to the highest compound concentration required for the experiment (2.5 mM).
# First, 145 uL of a complete cell culture medium was added to wells B1-G1 of a 96-well flat-bottomed tansparent cell culture plate, and 100 uL of the complete medium was added to wells B2-G12, respectively. Then, 5 uL of the 2.5 mM solution of the compound was added to wells B1-D1 and E1-G1 respectively, and then diluted gradiently by 3-folds to B12-D12 and E12-G12 in sequence. Finally, 50 uL of the solution of the cells to be tested was added to each well, with about 3000-5000 cells per well, and a total volume of 150 uL per well.
# In the experiment, in addition to the tested compound, two other control groups were set up: 1) a control group adding the cells and the complete medium, but without adding the compound; 2) a control group adding the complete medium only, without adding the cells and the compound. The 96-well plate was placed in a 37° C. cell culture incubator containing 5% carbon dioxide for 4 days, added with 15 uL of a CCK-8 reagent per well, and then incubated at 37° C. for 2-4 hours. The 96-well plate was read on a TECAN microplate reader, and the absorbance value at 450 nm wavelength was taken.
# The effect of different concentrations of the compound on cell viability was calculated by the following equation: [absorption value of the experimental group−absorption value of pure cell culture medium without the cells or the compound]/[absorption value of the control group with the tumor cells but no testing compound−absorption value of pure cell culture medium without the cell or the compound]×100%.
# The above data were precessed by software, and the IC50 value was the concentration of the compound corresponding to the 50% inhibition rate of cell growth.
# Based on the above test method of the compound on cell viability, a variety of […] cancer cell lines were tested, using multiple myeloma MM.1S, breast cancer MDA-MB-231 and leukemia MV4-11 cell lines as exemples. Using this test method, the IC50 values of partial compounds in the examples of the present invention measured in multiple myeloma MM.1S, breast cancer MDA-MB-231 cell lines and leukemia MV4-11 cell lines were shown in Table 2.
# BRD4 BD2 protein = BRD4 BD2 protein (Homo sapiens (Human), UniProt O60885); assay: Fluorescence polarization binding affinity (Ki) with BRD4 BD2 protein; details: fluorescence polarization; Ki calculated from IC50
# BRD4 BD1 protein = BRD4 BD1 protein (Homo sapiens (Human), UniProt O60885); assay: Fluorescence polarization binding affinity (Ki) with BRD4 BD1 protein; details: fluorescence polarization; Ki calculated from IC50
"IC50 ([1]; Homo sapiens, MM1.S, 96 h)",Ki (BRD4 BD2 protein),Ki (BRD4 BD1 protein),IC50 [1],Structure (SMILES)
257 nM,35.2 nM,104 nM,,"Cc1nnn2c1-c1ccc(-c3cncc4[nH]ccc34)cc1C(Nc1ccc(Cl)cc1)CC2 (stereo not drawn) [RB90, N-(4-chlorophenyl)-1-methyl-9-(1H-pyrrolo[2,3-c]pyridin-4-yl)-6,7-dihydro-5H-benzo[c][1,2,3]triazolo [1,5-a]azepin-7-amine]"
,11.4 nM,69 nM,114 nM,CNC(=O)Cc1ccc(NC2CCn3nnc(C)c3-c3ccc(-c4cnn(C)c4)cc32)cc1 (stereo not drawn) [LB142]
50.5 nM,11.1 nM,52 nM,,"Cc1nnn2c1-c1ccc(-c3cccnc3)cc1C(Nc1ccc(Cl)cc1)CC2 (stereo not drawn) [RA193, N-(4-chlorophenyl)-1-methyl-9-(pyridin-3-yl)-6,7-dihydro-5H-benzo[c][1,2,3]triazolo[1,5-a]azepin-7-amine]"
11.2 nM,7.4 nM,38 nM,,"Cc1nnn2c1-c1ccc(-c3cnn(C)c3)cc1C(Nc1ccc3cc[nH]c3c1)CC2 (stereo not drawn) [LB113, N-(1H-indo1-6-yl)-1-methyl-9-(1-methyl-1H-pyrazol-4-yl)-6,7-dihydro-5H-benzo[c][1,2,3]triazolo[1,5-a]azepin-7-amine]"
1.2 nM,8.8 nM,45.3 nM,,"Cc1nnn2c1-c1ccc(-c3cnn(C)c3)cc1C(Nc1cccc3[nH]ccc13)CC2 (stereo not drawn) [LB114, N-(1H-indo1-4-yl)-1-methyl-9-(1-methyl-1H-pyrazol-4-yl)-6,7-dihydro-5H-benzo[c][1,2,3]triazolo[1,5-a]azepin-7-amine]"
118 nM,9.61 nM,78.3 nM,,"Cc1nnn2c1-c1ccc(-c3cnn(C)c3)cc1C(Nc1ccc(O)cc1)CC2 (stereo not drawn) [LB143, 4-((1-methyl-9-(1-methyl-1H-pyrazol-4-yl)-6,7-dihydro-5H-benzo[c][1,2,3]triazolo[1,5-a]azepin-7-yl)amino)phenol]"
36.6 nM,13.7 nM,82.2 nM,,CNC(=O)c1ccccc1NC1CCn2nnc(C)c2-c2ccc(-c3cnn(C)c3)cc21 (stereo not drawn) [LB186]
16.9 nM,16.6 nM,36.9 nM,,"Cc1nnn2c1-c1ccc(-c3ccc(N)nc3)cc1C(Nc1ccc(Cl)cc1)CC2 (stereo not drawn) [RB03, 9-(6-aminopyridin-3-yl)-N-(4-chlorophenyl)-1-methyl-6,7-dihydro-5H-benzo[c][1,2,3]triazolo[1,5-a]azepin-7-amine]"
120 nM,48.3 nM,124 nM,,"Cc1nnn2c1-c1ccc(-c3cnn(C)c3)cc1C(Nc1ccc(CCN(C)C)cc1)CC2 (stereo not drawn) [LB139, N-(4-(2-(dimethylamino)ethyl)phenyl)-1-methyl-9-(1-methyl-1H-pyrazol-4-yl)-6,7-dihydro-5H-benzo[c][1,2,3]triazolo[1,5-a]azepin-7-amine]"
59 nM,1.33 nM and 4.03 nM,32.9 nM,,"Cc1nnn2c1-c1ccc(-c3cnn(C)c3)cc1C(Nc1ccc(CC#N)cc1)CC2 (stereo not drawn) [LC03, 2-(4-((1-methyl-9-(1-methyl-1H-pyrazol-4-yl)-6,7-dihydro-5H-benzo[c][1,2,3]triazolo[1,5-a]azepin-7-yl)amino)phenyl)acetonitrile]"
1200 nM,32.1 nM,179 nM,,"Cc1nnn2c1-c1ccc(-c3cnn(C)c3)cc1C(Nc1ccccc1C(=O)O)CC2 (stereo not drawn) [LB173, 2-((1-methyl-9-(1-methyl-1H-pyrazol-4-yl)-6,7-dihydro-5H-benzo[c][1,2,3]triazolo[1,5-a]azepin-7-yl)amino)benzoic acid]"

# Further lines, the compound ahead of its results:
Structure (SMILES),"IC50 ([1]; Homo sapiens, MM1.S, 96 h)",Ki (BRD4 BD2 protein),Ki (BRD4 BD1 protein),IC50 [1]
"Cc1noc2c1-c1ccc(-c3cnn(C)c3)cc1C(Nc1ccc(Cl)cc1)CC2 (stereo not drawn) [LA55, N-(4-chlorophenyl)-1-methyl-8-(1-methyl-1H-pyrazol-4-yl)-5,6-dihydro-4H-benzo[6,7]cyclohepta[1,2-d]isoxazol-6-amine]",26.5 nM,25.5 nM,53.7 nM,
"Cc1nnn2c1-c1ccc(-c3cnn(C)c3)cc1C(Nc1ccc(F)cc1F)CC2 (stereo not drawn) [LC01, N-(2,4-difluorophenyl)-1-methyl-9-(1-methyl-1H-pyrazol-4-yl)-6,7-dihydro-5H-benzo[c][1,2,3]triazolo[1,5-a]azepin-7-amine]",48.8 nM,28.4 nM and 9.08 nM,56 nM,
"Cc1nnn2c1-c1ccc(C3=CCN(C(C)C)CC3)cc1C(Nc1cccc(Cl)c1)CC2 (stereo not drawn) [BH32, N-(3-chlorophenyl)-9-(1-isopropyl-1,2,3,6-tetrahydropyridin-4-yl)-1-methyl-6,7-dihydro-5H-benzo[c][1,2,3]triazolo[1,5-a]azepin-7-amine 2,2,2-trifluoroacetate]",119 nM,9.75 nM,525 nM,
"CC(=O)N1CC=C(c2ccc3c(c2)C(Nc2ccc(F)c(Cl)c2)CCn2nnc(C)c2-3)CC1 (stereo not drawn) [LD77, 1-(4-(7-((3-chloro-4-fluorophenyl)amino)-1-methyl-6,7-dihydro-5H-benzo[c][1,2,3]triazolo[1,5-a]azepin-9-yl)-3,6-dihydropyridin-1(2H)-yl)ethan-1-one]",1.86 nM,3.97 nM and 3.16 nM,81.7 nM,
"Cc1noc2c1-c1ccc(-c3cn[nH]c3)cc1C(Nc1ccc(Cl)cc1)CC2 (stereo not drawn) [LA108, N-(4-chlorophenyl)-1-methyl-8-(1H-pyrazol-4-yl)-5,6-dihydro-4H-benzo[6,7]cyclohepta[1,2-d]isoxazol-6-amine]",30.2 nM,31.7 nM,80.5 nM,
"Cc1nnn2c1-c1ccc(-c3cnn(C)c3)cc1C(Nc1cccc3ncccc13)CC2 (stereo not drawn) [LB86, 1-methyl-9-(1-methyl-1H-pyrazol-4-yl)-N-(quinolin-5-yl)-6,7-dihydro-5H-benzo[c][1,2,3]triazolo[1,5-a]azepin-7-amine]",45.1 nM,14 nM,56 nM,
"Cc1nnn2c1-c1ccc(C3=CCNCC3)cc1C(Nc1cccc(OCCO)c1)CC2 (stereo not drawn) [LC56, 2-(3-((1-methyl-9-(1,2,3,6-tetrahydropyridin-4-yl)-6,7-dihydro-5H-benzo[c][1,2,3]triazolo[1,5-a]azepin-7-yl)amino)phenoxy)ethan-1-ol 2,2,2-trifluoroacetate]",2890 nM,70.3 nM,1520 nM,
"Cc1nnn2c1-c1ccc(-c3cnn(C)c3)cc1C(Nc1ccc(CO)cc1)CC2 (stereo not drawn) [LB35, (4-((1-methyl-9-(1-methyl-1H-pyrazol-4-yl)-6,7-dihydro-5H-benzo[c][1,2,3]triazolo[1,5-a]azepin-7-yl)amino)phenyl)methanol]",36.5 nM,23.9 nM,614 nM,
"COC(=O)c1cccc(NC2CCn3nnc(C)c3-c3ccc(-c4cnn(C)c4)cc32)c1 (stereo not drawn) [LB92, methyl 3-((1-methyl-9-(1-methyl-1H-pyrazol-4-yl)-6,7-dihydro-5H-benzo[c][1,2,3]triazolo[1,5-a]azepin-7-yl)amino)benzoate]",121 nM,17.9 nM,133 nM,
"Cc1nnn2c1-c1ccc(-c3cnn(C)c3)cc1C(Nc1ccc(N(C)C)cc1)CC2 (stereo not drawn) [LB17, N^1,N^1-dimethyl-N^4-(1-methyl-9-(1-methyl-1H-pyrazol-4-yl)-6,7-dihydro-5H-benzo[c][1,2,3]triazolo[1,5-a]azepin-7-yl)benzene-1,4-diamine]",119 nM,44 nM,236 nM,
"Cc1nnn2c1-c1ccc(-c3cnn(C)c3)cc1C(Nc1ccc(C(O)(C(F)(F)F)C(F)(F)F)cc1)CC2 (stereo not drawn) [LB83, 1,1,1,3,3,3-hexafluoro-2-(4-((1-methyl-9-(1-methyl-1H-pyrazol-4-yl)-6,7-dihydro-5H-Benzo[c][1,2,3]triazolo[1,5-a]azepin-7-yl)amino)phenyl)propan-2-ol]",250 nM,38.4 nM,180 nM,
"COc1ccc(NC2CCc3onc(C)c3-c3ccc(OC)cc32)cc1 (stereo not drawn) [FA01, 8-methoxy-N-(4-methoxyphenyl)-1-methyl-5,6-dihydro-4H-benzo[6,7]cyclohepta[1,2-d]isoxazol-6-amine]",559 nM,105 nM,169 nM,
"Cc1nnn2c1-c1ccc(-c3cnn(C)c3)cc1C(Nc1cccc(OCCO)c1)CC2 (stereo not drawn) [LB77, 2-(3-((1-methyl-9-(1-methyl-1H-pyrazol-4-yl)-6,7-dihydro-5H-benzo[c][1,2,3]triazolo[1,5-a]azepin-7-yl)amino)phenoxy)ethanol]",71.7 nM,6 nM,99.9 nM,
"COC(=O)Cc1cccc(NC2CCn3nnc(C)c3-c3ccc(-c4cnn(C)c4)cc32)c1 (stereo not drawn) [LB63, methyl 2-(3-((1-methyl-9-(1-methyl-1H-pyrazol-4-yl)-6,7-dihydro-5H-benzo[c][1,2,3]triazolo[1,5-a]azepin-7-yl)amino)phenyl)acetate]",160 nM,14 nM,77.8 nM,
